US6797861B2, “Seed shattering” (Bayer BioScience NV, priority 1995, dated 2004)

Tests used:
Assay type in all cases: in vivo, Brassica napus
[1] = tested on: endogenous ACC and IAA in pod tissues; experiment: Endogenous phytohormone (ACC, IAA) concentrations in pod tissues; conditions: spray at 150 mg/l, 35 days after anthesis
Procedure: (§1) Brassica napus cv Fido plants were grown in an unheated greenhouse. At 12 days after germination plants were transferred to, and further grown in, 1000 cm^3 compost. Pods were collected at one week intervals from two to eight weeks after anthesis. The pods were taken from the base of the terminal one of the first three axillary racemes. The pods were separated into dehiscence zone, pod wall and seeds.
The samples were grinded with a mortar and pestle and then extracted for 16 hours at −20 C. in a total volume of 80% methanol. Purification and analysis of phytohormones was carried out essentially as described [Bialek and Cohen (1989), Plant Physiol. 90: 398; Prinsen et al. (1991), in: A Laboratory Guide for Cellular and Molecular Plant Biology. Ed. Negrutiu and Gharti-Chhetri. Birkhäuser Verlag, Basel/Boston/Berlin pp.175-185, pp.323-324; Chauvaux et al. (1993), J. Chromatogr. A 657: 337].
Different parts of the pods (pod wall, dehiscence zone and seeds) were screened for endogenous concentrations of the ethylene precursor 1-aminocyclopropane-1-carboxylic acid (ACC) and conjugates thereof as well as for indole-3-acetic acid (IAA) and conjugates thereof.
In a further experiment ethylene production was inhibited by treating the pods with aminoethoxyvinylglycine (AVG), a competitive inhibitor of the enzyme ACC-synthase. AVG was applied 28 days after anthesis at 500 mg/l. […]

[2] = tested on: pods of oilseed rape cv Fido; experiment: Pod wall senescence and pod shatter tendency of treated plants; conditions: spray at 150 mg/l, 35 days after anthesis
Procedure: as §1
(§2) In a further experiment ethylene production was inhibited by treating the pods with aminoethoxyvinylglycine (AVG), a competitive inhibitor of the enzyme ACC-synthase. AVG was applied 28 days after anthesis at 500 mg/l. […] Decreased endogenous ACC concentrations in both dehiscence zone and seeds of the treated pods correlated with the reduced ethylene production. […] A decrease in endogenous IAA content in the dehiscence zone preceding pod opening was also observed in these experiments both in control and in AVG-treated plants.
(§3) To examine the auxin involvement in pod shattering, the synthetic auxin 4-chlorophenoxyacetic acid (4CPA) was used to manipulate auxin levels. 4CPA was applied 35 days after anthesis as a spray at 150 mg/l in order to artificially keep auxin concentration at a high level during the entire period. […] No effect was observed on the endogenous phytohormone concentrations.

Beta-Glucanase = experiment: Beta-glucanase activity in the dehiscence zone; conditions: spray at 150 mg/l, 35 days after anthesis
Procedure: as §3

[3] = tested on: pods (8% moisture) of oilseed rape cv Fido; experiment: Cantilever bending test of pod opening force; conditions: plants sprayed
Procedure: as §1
as §2, with “plants. […]” for “plants.”
3) changes in the mechanical properties of the DZ and their seed shatter resistance by analysing the shatter resistance of individual pods. […] In yet another procedure, susceptibility to crack propagation is determined by friction measurement. In this case, the force generated due to friction between a wedge forced along the DZ is recorded and enables comparison of DZ tissues in selected, extreme examples of resistance.

## O=C(O)COc1ccc(Cl)cc1 [4CPA, 4-chlorophenoxyacetic acid]
[1]
  effect on endogenous phytohormone concentrations: No effect
[2]
  delay of pod wall senescence: about two
  pod shatter tendency: distinct retardation
Beta-Glucanase
  Beta-Glucanase activity in the dehiscence zone: markedly decreased
[3]
  Force needed to initiate crack (pod opening): 194.9 10^−3N
  Force needed to propagate crack (pod opening): 222.6 10^−3N
